The values below come from ChEMBL document CHEMBL2321647 (ACS Med Chem Lett, 2013).

SMILES strings stand for the structures.

For one assay, the target named is Histone deacetylase 9 (Homo sapiens, UniProt Q9UKV0). Description: Inhibition of C-terminal His-tagged human recombinant HDAC9 (amino acids 604- 1066) expressed in baculovirus expression system using fluorogenic acetylated peptide as substrate preincubated with enzyme for 10 mins prior to substrate addition measured after 60 mins by fluorescence analysis.
Chain of Histone deacetylase 9 (Q9UKV0 whole entry, the tested form may be a part): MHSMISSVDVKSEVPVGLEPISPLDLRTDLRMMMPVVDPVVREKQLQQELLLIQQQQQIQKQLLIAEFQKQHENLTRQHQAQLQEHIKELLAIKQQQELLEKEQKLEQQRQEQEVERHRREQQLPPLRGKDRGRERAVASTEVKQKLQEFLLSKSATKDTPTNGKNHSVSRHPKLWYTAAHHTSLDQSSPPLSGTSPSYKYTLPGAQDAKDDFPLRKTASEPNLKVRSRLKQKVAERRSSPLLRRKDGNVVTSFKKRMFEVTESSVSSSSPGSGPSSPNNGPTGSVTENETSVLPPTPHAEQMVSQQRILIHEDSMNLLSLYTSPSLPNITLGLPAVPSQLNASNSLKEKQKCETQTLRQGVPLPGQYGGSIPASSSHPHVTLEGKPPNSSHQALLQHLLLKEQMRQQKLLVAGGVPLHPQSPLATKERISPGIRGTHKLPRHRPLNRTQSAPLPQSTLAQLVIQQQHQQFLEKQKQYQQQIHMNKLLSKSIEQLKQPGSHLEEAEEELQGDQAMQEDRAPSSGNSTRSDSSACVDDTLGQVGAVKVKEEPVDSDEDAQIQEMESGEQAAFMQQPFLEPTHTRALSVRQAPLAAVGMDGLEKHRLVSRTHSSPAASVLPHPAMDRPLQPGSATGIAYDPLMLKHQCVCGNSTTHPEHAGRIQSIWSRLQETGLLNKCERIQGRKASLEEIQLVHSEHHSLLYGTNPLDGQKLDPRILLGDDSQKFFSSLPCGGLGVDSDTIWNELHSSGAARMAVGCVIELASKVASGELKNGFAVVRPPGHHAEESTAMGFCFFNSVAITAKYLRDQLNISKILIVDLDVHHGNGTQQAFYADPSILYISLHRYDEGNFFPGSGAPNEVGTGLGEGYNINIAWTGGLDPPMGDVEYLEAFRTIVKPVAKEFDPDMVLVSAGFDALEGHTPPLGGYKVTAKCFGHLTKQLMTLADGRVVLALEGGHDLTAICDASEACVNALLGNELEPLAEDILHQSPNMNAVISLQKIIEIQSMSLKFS
The next assay addresses Histone deacetylase 3 (Homo sapiens, UniProt O15379). Description: Inhibition of C-terminal His-tagged full length human recombinant HDAC3 co-expressed with NcoR2 in baculovirus expression system using fluorogenic acetylated peptide as substrate preincubated with enzyme for 10 mins prior to substrate addition measured after 60 mins by fluorescence analysis.
For a further assay, the target named is Histone deacetylase 2 (Homo sapiens, UniProt Q92769). Description: Inhibition of C-terminal His-tagged full length human recombinant HDAC2 expressed in baculovirus expression system using fluorogenic acetylated peptide as substrate preincubated with enzyme for 10 mins prior to substrate addition measured after 60 mins by fluorescence analysis.
Chain of Histone deacetylase 2 (Q92769 whole entry): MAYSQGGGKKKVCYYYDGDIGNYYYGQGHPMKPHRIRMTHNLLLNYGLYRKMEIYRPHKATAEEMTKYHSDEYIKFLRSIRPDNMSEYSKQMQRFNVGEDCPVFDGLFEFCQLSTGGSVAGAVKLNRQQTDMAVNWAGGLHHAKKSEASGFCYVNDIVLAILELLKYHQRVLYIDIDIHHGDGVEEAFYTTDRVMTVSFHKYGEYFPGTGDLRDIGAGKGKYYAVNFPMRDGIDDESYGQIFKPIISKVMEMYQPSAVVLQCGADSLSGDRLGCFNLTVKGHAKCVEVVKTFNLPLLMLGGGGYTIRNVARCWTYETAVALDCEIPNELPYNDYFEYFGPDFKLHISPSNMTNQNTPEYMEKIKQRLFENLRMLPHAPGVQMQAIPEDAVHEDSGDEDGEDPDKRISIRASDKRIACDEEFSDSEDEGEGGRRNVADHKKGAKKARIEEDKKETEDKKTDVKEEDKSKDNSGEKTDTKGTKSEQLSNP
A further assay concerns the target Histone deacetylase 1 (Homo sapiens, UniProt Q13547). Description: Inhibition of C-terminal His-tagged and C-terminal FLAG-tagged full length human recombinant HDAC1 expressed in baculovirus expression system using fluorogenic acetylated peptide as substrate preincubated with enzyme for 10 mins prior to substrate addition measured after 60 mins by fluorescence analysis.

Chain of Histone deacetylase 1 (Q13547 whole entry): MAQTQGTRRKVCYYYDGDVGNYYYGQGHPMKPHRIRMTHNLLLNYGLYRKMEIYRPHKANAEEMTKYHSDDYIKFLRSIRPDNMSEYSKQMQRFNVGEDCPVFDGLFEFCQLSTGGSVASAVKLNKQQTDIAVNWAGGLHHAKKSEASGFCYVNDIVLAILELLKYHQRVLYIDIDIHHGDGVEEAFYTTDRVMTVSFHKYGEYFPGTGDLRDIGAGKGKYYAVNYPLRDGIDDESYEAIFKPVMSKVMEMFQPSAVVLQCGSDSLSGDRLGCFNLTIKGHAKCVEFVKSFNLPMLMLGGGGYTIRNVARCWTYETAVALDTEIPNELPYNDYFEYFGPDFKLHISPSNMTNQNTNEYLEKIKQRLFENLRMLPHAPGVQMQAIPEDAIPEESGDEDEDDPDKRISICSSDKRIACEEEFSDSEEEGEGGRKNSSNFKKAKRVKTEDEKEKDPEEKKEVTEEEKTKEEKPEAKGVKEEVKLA
Chain of Histone deacetylase 3 (O15379 whole entry): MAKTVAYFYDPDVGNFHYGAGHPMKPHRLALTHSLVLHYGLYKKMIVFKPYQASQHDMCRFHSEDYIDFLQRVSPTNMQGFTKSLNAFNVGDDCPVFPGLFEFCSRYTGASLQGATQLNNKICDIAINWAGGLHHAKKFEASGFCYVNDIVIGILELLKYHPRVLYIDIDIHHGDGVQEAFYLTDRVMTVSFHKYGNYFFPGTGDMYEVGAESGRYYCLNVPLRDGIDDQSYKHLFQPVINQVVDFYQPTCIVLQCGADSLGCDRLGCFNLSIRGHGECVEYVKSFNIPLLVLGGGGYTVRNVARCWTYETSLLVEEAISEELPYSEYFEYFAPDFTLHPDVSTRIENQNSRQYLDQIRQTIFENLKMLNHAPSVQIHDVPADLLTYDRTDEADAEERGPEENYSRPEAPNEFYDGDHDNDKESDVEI

Regarding `CC(C)[C@@H]1NC(=O)Cn2nnnc2-c2csc(n2)CNC(=O)C[C@@H](/C=C/CCS)OC1=O`, the IC50 – broadly, the concentration at which inhibition is half-maximal – on Histone deacetylase 9 was 16.2 µM; on Histone deacetylase 3, 0.649 µM; on Histone deacetylase 2, 3.27 µM; at Histone deacetylase 1, 1.67 µM.

Turning to `CC(C)[C@@H]1NC(=O)Cn2nnc(n2)-c2csc(n2)CNC(=O)C[C@@H](/C=C/CCS)OC1=O`, the IC50 was 34.6 µM at Histone deacetylase 9, 0.031 µM on Histone deacetylase 3, 0.224 µM on Histone deacetylase 2 and 0.1 µM on Histone deacetylase 1.

As to `CCCCCCCC(=O)SCC/C=C/[C@@H]1CC(=O)NCc2nc(cs2)-c2cn(nn2)CC(=O)N[C@@H](C(C)C)C(=O)O1`, the IC50 at Histone deacetylase 9 came out at 63.2 µM; at Histone deacetylase 3 it was 14 µM; at Histone deacetylase 2, 32.1 µM; on Histone deacetylase 1, 17.6 µM.

For the compound `CCCCCCCC(=O)SCC/C=C/[C@@H]1CC(=O)NCc2nc(cs2)C2=N[C@@](C)(CS2)C(=O)N[C@@H](C(C)C)C(=O)O1` [LARGAZOLE], the figures for the IC50 at Histone deacetylase 9, at Histone deacetylase 2 and on Histone deacetylase 1 were 8.33 µM, 1.72 µM and 0.146 µM, respectively.

Consider `CC(C)[C@@H]1NC(=O)Cn2cc(nn2)-c2csc(n2)CNC(=O)C[C@@H](/C=C/CCS)OC1=O`, for which the IC50 on Histone deacetylase 9 was found to be 32 µM; on Histone deacetylase 3, 0.885 µM; on Histone deacetylase 2, 3.88 µM; at Histone deacetylase 1 it was 2.35 µM.

Consider `CCCCCCCC(=O)SCC/C=C/[C@@H]1CC(=O)NCc2nc(cs2)-c2nnnn2CC(=O)N[C@@H](C(C)C)C(=O)O1`, for which the figures for the IC50 at Histone deacetylase 9, at Histone deacetylase 3 and at Histone deacetylase 2 were 18.4 µM, 10.4 µM and 25.1 µM, respectively.

For `CCCCCCCC(=O)SCC/C=C/[C@@H]1CC(=O)NCc2nc(cs2)-c2nnn(n2)CC(=O)N[C@@H](C(C)C)C(=O)O1`, the IC50 on Histone deacetylase 9 was above 100 µM; at Histone deacetylase 3 it was 3.99 µM; on Histone deacetylase 2 it was 30.8 µM; on Histone deacetylase 1, 7.42 µM.
